The results in this text go back to patent publication US9750255B2, “Agricultural or horticultural chemical, method of controlling plant diseases, and product for controlling plant diseases” (Kureha Corporation, priority 2013, dated 2017).

The subject of one experiment is Fusarium graminearum. In words: microbe, parasite or virus in culture. Format: cell-based.
The next experiment deals with Phaeosphaeria nodorum. As to the kind of experiment: In vitro antimicrobial activity test, colony diameter on PDA plate, Phaeosphaeria nodorum.
In a further experiment the test system is Penicilium italicum. In words: In vitro antimicrobial activity test, colony diameter on PDA plate, Penicilium italicum.
For the next experiment, the system named is Microdochium nivale. In words: In vitro antimicrobial activity test, colony diameter on PDA plate, Microdochium nivale.
Another experiment concerns Septoria tritici. As to the kind of experiment: In vitro antimicrobial activity test, colony diameter on PDA plate, Septoria tritici. The note with it: for Fungal growth inhibition rate (%) Measured value: 25° C., 14 days.
Setting [1] is: Parastagonospora nodorum, 168 h, read-out: Fungal growth inhibition rate (%) Measured value.
[2] abbreviates: Zymoseptoria tritici, 336 h, read-out: Fungal growth inhibition rate (%) Measured value.
Where [3] appears, read: 72 h, read-out: Fungal growth inhibition rate (%) Measured value.
Setting [4] is: Fusarium graminearum, 72 h, read-out: Fungal growth inhibition rate (%) Measured value.
[5] abbreviates: Microdochium nivale, 72 h, read-out: Fungal growth inhibition rate (%) Measured value.

The structures appear in SMILES notation.

As for `COC(=O)C1(C)CCC(Cc2ccc(Cl)cc2)C1(O)Cn1cncn1` (stereo not drawn) [Compound (1), methyl 3-(4-chlorobenzyl)-2-hydroxy-1-methyl-2-(1H-1,2,4-triazole-1-ylmethyl)cyclopentane carbonate], the “Fungal growth inhibition rate (%) Measured value” is listed as 93% in the experiment with Fusarium graminearum (Test Example 3, compound (1) 1.25 ppm alone, 25° C., 3 days); 89% in the experiment on Phaeosphaeria nodorum (Test Example 6, compound (1) 1.25 ppm alone, 25° C., seven days); 83% in the experiment with Penicilium italicum (Test Example 5, compound (1) 1.25 ppm alone, 25° C., 3 days); 26% with Microdochium nivale (Test Example 4, compound (1) 0.313 ppm alone, 25° C., 3 days); 35% with Septoria tritici (Test Example 1, compound (1) 0.005 ppm alone); 3% in the experiment on Septoria tritici (Test Example 2, compound (1) 0.02 ppm alone). The “Fungal growth inhibition rate (%) Measured value” with Septoria tritici (Test Example 7, compound (1) 1.25 ppm alone) is listed as 70%; in the experiment on Septoria tritici (Test Example 8, compound (1) 1.25 ppm alone) it was 77%.

In the case of `CC(C)C1CCC(Cc2ccc(Cl)cc2)C1(O)Cn1cncn1` (stereo not drawn) [Ipconazole, ipconazole], in the experiment on Phaeosphaeria nodorum (setting [1]), the inhibition at 0.01 ppm is 20%, the inhibition at 0.04 ppm came out at 31%, the inhibition at 0.16 ppm was 62% and the inhibition at 0.63 ppm turned out to be 76%.

`CC(Cc1ccc(C(C)(C)C)cc1)CN1C[C@@H](C)O[C@@H](C)C1` (stereo partly drawn) [Fenpropimorph, fenpropimorph]: in the experiment with Septoria tritici (setting [2]), the inhibition at 0.04 ppm came to 16%, the inhibition at 0.16 ppm is 21%, the inhibition at 0.63 ppm came to 23% and the inhibition at 2.5 ppm worked out at 42%. Further, the inhibition at 10 ppm in the experiment on Septoria tritici (setting [2]) worked out at 45%.

For `CC1(C)CCC(Cc2ccc(Cl)cc2)C1(O)Cn1cncn1` (stereo not drawn) [Metconazole, metconazole], in the experiment with Septoria tritici (setting [2]), the inhibition at 0.01 ppm turned out to be 0%, the inhibition at 0.039 ppm was determined as 0%, the inhibition at 0.156 ppm is 11% and the inhibition at 0.625 ppm was determined as 56%. For the same compound, the inhibition at 2.5 ppm in the experiment on Septoria tritici (setting [2]) worked out at 98%.

Regarding `CC(C)(C)C(O)(CCc1ccc(Cl)cc1)Cn1cncn1` (stereo not drawn) [Tebuconazole, tebuconazole], in the experiment with Penicilium italicum (setting [3]), the inhibition at 0.04 ppm worked out at 3%, the inhibition at 0.16 ppm came out at 30%, the inhibition at 0.63 ppm was 68% and the inhibition at 2.5 ppm came out at 87%. Further, the inhibition at 10 ppm with Penicilium italicum (setting [3]) stood at 100%.

For the compound `Fc1ccc([C@]2(Cn3cncn3)O[C@H]2c2ccccc2Cl)cc1` (racemic) [Epoxiconazole, epoxiconazole], in the experiment with Fusarium graminearum (setting [4]), the inhibition at 0.01 ppm came out at 22%, the inhibition at 0.04 ppm amounted to 27%, the inhibition at 0.16 ppm worked out at 39% and the inhibition at 0.63 ppm came to 57%. Also, in the experiment on Fusarium graminearum (setting [4]), the inhibition at 2.5 ppm came out at 88%.

`OC(Cc1ccccc1Cl)(Cn1nc[nH]c1=S)C1(Cl)CC1` (stereo not drawn) [Prothioconazole, prothioconazole]: in the experiment on Septoria tritici (setting [2]), the inhibition at 0.01 ppm worked out at 0%, the inhibition at 0.039 ppm was 10%, the inhibition at 0.156 ppm came to 21% and the inhibition at 0.625 ppm was determined as 51%. For the same compound, in the experiment with Septoria tritici (setting [2]), the inhibition at 2.5 ppm turned out to be 100%.

For the compound `CC(Cc1ccc(C(C)(C)C)cc1)CN1CCCCC1` (stereo not drawn) [Fenpropidine, fenpropidine], the “Fungal growth inhibition rate (%) Measured value” in the experiment with Septoria tritici (Test Example 8, fenpropidine 0.04 ppm alone) came out at 0%; in the experiment on Septoria tritici (Test Example 8, fenpropidine 0.16 ppm alone), 0%; with Septoria tritici (Test Example 8, fenpropidine 0.63 ppm alone) it was 40%; in the experiment on Septoria tritici (Test Example 8, fenpropidine 2.50 ppm alone), 38%; in the experiment with Septoria tritici (Test Example 8, fenpropidine 10.00 ppm alone), 40%.

For `CCCC1COC(Cn2cncn2)(c2ccc(Cl)cc2Cl)O1` (stereo not drawn) [Propiconazole, propiconazole], in the experiment with Microdochium nivale (setting [5]), the inhibition at 0.156 ppm was 0%, the inhibition at 0.625 ppm worked out at 45% and the inhibition at 2.5 ppm turned out to be 76%.
